Source: patent publication US20260176289A1, “SMALL MOLECULE INHIBITORS OF KRAS PROTEINS” (Merck Sharp & Dohme LLC, priority 2022, published 2026)
Read-outs that look alike come from different tables or passages of the source.

Experiments:
KRAS-WT = KRAS-WT (Homo sapiens, UniProt P01116); assay: SOS-catalyzed nucleotide exchange assay (Procedure A, TR-FRET), KRAS-WT; type: biochemical; conditions: nucleotide exchange, read-out: KRAS WT GNE IC50
Method in brief: (§1)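 TR-FRET 520/495 nm ratio read after SOS-driven exchange of Bodipy-GDP for unlabeled GTP (3 mM) on biotinylated RAS bound to Tb-streptavidin. There was a 60 min compound preincubation, RT. Final RAS/SOS and reaction times: G12C 3 nM/40 nM; WT 1 nM/40 nM; NRAS 1.25 nM/40 nM, each 60 min. G12V was 1.25 nM/160 nM, 90 min.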

KRAS-G12D = KRAS-G12D (Homo sapiens, UniProt P01116, G12D); assay: SOS-catalyzed nucleotide exchange assay (Procedure A, TR-FRET), KRAS-G12D; type: biochemical; conditions: nucleotide exchange, read-out: KRAS G12D GNE IC50
KRAS-G12D, sequence (P01116 with tags, fused parts or gaps isoform P01116-2 G12D): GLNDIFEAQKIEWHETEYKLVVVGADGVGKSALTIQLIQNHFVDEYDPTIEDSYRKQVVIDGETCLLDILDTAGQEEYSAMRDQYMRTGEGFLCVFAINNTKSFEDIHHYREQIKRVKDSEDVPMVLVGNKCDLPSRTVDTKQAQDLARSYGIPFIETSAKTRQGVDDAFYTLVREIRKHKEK
Method in brief: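 Signal ratio (520/495 nm, excitation 340 nm) reports Bodipy-GDP retention on biotinylated RAS after SOS-catalyzed exchange with 3 mM GTP. SOS was 40 nM, except 160 nM for G12V. Room-temperature exchange lasted 60 min (90 min for G12V), following a 60 min compound preincubation.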

KRAS-G12V = KRAS-G12V (Homo sapiens, UniProt P01116, G12V); assay: SOS-catalyzed nucleotide exchange assay (Procedure A, TR-FRET), KRAS-G12V; type: biochemical; conditions: nucleotide exchange, read-out: KRAS G12V GNE IC50
KRAS-G12V, sequence (P01116 with tags, fused parts or gaps isoform P01116-2 G12V): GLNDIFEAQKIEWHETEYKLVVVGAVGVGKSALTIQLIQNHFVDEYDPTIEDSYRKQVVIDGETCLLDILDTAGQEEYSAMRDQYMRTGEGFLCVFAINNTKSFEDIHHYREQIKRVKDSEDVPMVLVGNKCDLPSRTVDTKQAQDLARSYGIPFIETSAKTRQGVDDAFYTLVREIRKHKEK
Method in brief: as §1

MKN-1 cells = assay: Cellular phospho-ERK assay, MKN-1 cells (amplified wild-type KRAS); type: cell-based; conditions: Homo sapiens, read-out: MKN1 pERK IC50
Method in brief: (§2)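 Cells seeded at 10,000-15,000 per well were incubated overnight, then exposed to compound for 2 hours at 37 °C in a 10-point, 1:3 series topping at 30 μM final. Lysates were assayed by Alpha SureFire Ultra multiplex for p-ERK and total ERK; IC50 came from a 4-parameter logistic fit of their ratio.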

AsPC-1 cells = assay: Cellular phospho-ERK assay, AsPC-1 cells (homozygous KRAS-G12D); type: cell-based; conditions: Homo sapiens, ASPC1, 2 h, read-out: AsPC1 pERK IC50
Method in brief: as §2

SW620 cells = assay: Cellular phospho-ERK assay, SW620 cells (homozygous KRAS-G12V); type: cell-based; conditions: Homo sapiens, read-out: SW620 pERK IC50
Method in brief: as §2

[1] = amplified wild-type KRAS, 2 hours
[2] = SW-620, 2 hours compound incubation

KRAS-WT, sequence (P01116 with tags, fused parts or gaps isoform P01116-2): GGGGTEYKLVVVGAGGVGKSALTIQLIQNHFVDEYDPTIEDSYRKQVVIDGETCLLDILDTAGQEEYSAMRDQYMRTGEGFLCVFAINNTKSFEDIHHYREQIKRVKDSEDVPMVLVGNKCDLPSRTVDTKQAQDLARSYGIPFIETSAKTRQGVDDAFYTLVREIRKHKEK

IC50 (MKN-1 cells; 2 hours compound incubation) | IC50 (AsPC-1 cells; 2 hours compound incubation) | IC50 (SW620 cells; [2]) | Structure (SMILES) | IC50 (KRAS-WT) | IC50 (KRAS-G12D) | IC50 (KRAS-G12V) | IC50 (MKN-1 cells; [1]) | IC50 (AsPC-1 cells; KRAS-G12D, 2 hours) | IC50 (SW620 cells; SW-620, KRAS-G12V, 2 hours)
– | – | – | C/C=C/c1c(C)cc2[nH]ncc2c1-c1nccc2c1sc1nc(OC[C@@]34CCCN3C[C@H](F)C4)nc(N3CCOC[C@@](C)(O)C3)c12 [Ex-64, (6S)-4-(2-(((2R,7aS)-2-fluorotetrahydro-1H-pyrrolizin-7a(5H)-yl)methoxy)-8-(6-methyl-5-((E)-prop-1-en-1-yl)-1H-indazol-4-yl)pyrido[4′,3′:4,5]thieno [2,3-d]pyrimidin-4-yl)-6-methyl-1,4-oxazepan-6-ol] | 250 nM | 99.1 nM | 163 nM | 389 nM | 486 nM | 294 nM
– | – | – | CCC1c2c(cc3[nH]ncc3c2-c2nccc3c2sc2nc(OC[C@@]45CCCN4C[C@H](F)C5)nc(N4CCOC[C@@](C)(O)C4)c23)CC1(F)F (single isomer, unassigned) [Ex-108] | 3.09 nM | 1.52 nM | 5.41 nM | 28.9 nM | 50 nM | 20.9 nM
– | – | – | Cc1cc2[nH]ncc2c(-c2nccc3c2sc2nc(OC[C@@]45CCCN4C[C@H](F)C5)nc(N4CCOC[C@@](C)(O)C4)c23)c1[C@@H]1C[C@H]1C (atropisomer, axis not shown; (aS)) [Ex-67, (S)-4-((R)-2-(((2R,7aS)-2-fluorotetrahydro-1H-pyrrolizin-7a(5H)-yl)methoxy)-8-(6-methyl-5-((1R,2R)-2-methylcyclopropyl)-1H-indazol-4-yl)pyrido[4′,3′:4,5]thieno [2,3-d]pyrimidin-4-yl)-6-methyl-1,4-oxazepan-6-o1] | 40 nM | 11.9 nM | 23.1 nM | 186 nM | 113 nM | 323 nM
– | – | – | C[C@@]1(O)COCCN(c2nc(OC[C@@]34CCCN3C[C@H](F)C4)nc3c(Cl)c4c(-c5c(C6CC6)c(Cl)cc6[nH]ncc56)nccn4c23)C1 (single isomer, unassigned) [Ex-300] | 14.4 nM | 6.53 nM | 8.43 nM | 54.6 nM | 222 nM | 39.8 nM
51.9 nM | 109 nM | 38.2 nM | CO[C@H]1CN2CCC[C@@]2(COc2nc(N3CCOC[C@@](C)(O)C3)c3c(n2)sc2c(-c4c(C5CC5)c(Cl)cc5[nH]ncc45)nccc23)C1 [Ex-229, (6S)-4-(8-(6-chloro-5-cyclopropyl-1H-indazol-4-yl)-2-(((2R,7aS)-2-meth-oxytetrahydro-1H-pyrrolizin-7a(5H)-yl)methoxy)pyrido [4′,3′:4,5]thieno[2,3-d]pyrimidin-4-yl)-6-methyl-1,4-oxaze-pan-6-ol] | 22.5 nM | 6.54 nM | 19.1 nM | – | – | –
373 nM | 923 nM | 220 nM | CCC1(O)COCCN(c2nc(OC[C@@]34CCCN3C[C@H](F)C4)nc3sc4c(-c5c(C(F)(F)F)c(C)cc6[nH]ncc56)nccc4c23)C1 (stereo partly drawn) [Ex-201, 6-ethyl-4-(2-(((2R,7aS)-2-fluorotetrahydro-1H-pyr-rolizin-7a(5H)-yl)meth-oxy)-8-(6-methyl-5-(tri-fluoromethyl)-1H-indazol-4-yl)pyrido[4′,3′:4,5]thieno[2,3-d]pyrimidin-4-yl)-1,4-oxazepan-6-ol] | 404 nM | 285 nM | 206 nM | – | – | –
313 nM | 374 nM | 190 nM | Cc1cc2[nH]ncc2c(-c2nccc3c2sc2nc(OC[C@@]45CCCN4C[C@H](F)C5)nc(N4CCOCC5(CC(C)O5)C4)c23)c1C(F)(F)F (stereo partly drawn) [Ex-199, 9-(2-(((2R,7aS)-2-fluoro-tetrahydro-1H-pyrrolizin-7a(5/7)-yl)methoxy)-8-(6-methyl-5-(trifluorometh-yl)-1H-indazol-4-yl)pyrido [4′,3′:4,5]thieno[2,3-d]pyr-imidin-4-yl)-2-methyl-1,6-dioxa-9-azaspiro[3.6] decane] | 287 nM | 86.8 nM | 92.6 nM | – | – | –
– | – | – | C[C@@]1(O)COCCN(c2nc(OC[C@@]34CCCN3C[C@H](F)C4)nc3sc4c(-c5c(C6(F)CC6)c(C(F)(F)F)cc6[nH]ncc56)nncc4c23)C1 [Ex-283, (6S)-4-(8-(5-(1-fluorocyclopropyl)-6-(trifluoromethyl)-1H-indazol-4-yl)-2-(((2R,7aS)-2-fluorotetrahydro-1H-pyrrolizin-7a(5H)-yl)methoxy)pyrimido [5′,4′:4,5]thieno[2,3-d]pyridazin-4-yl)-6-methyl-1,4-oxazepan-6-ol] | 14.5 nM | 5.26 nM | 15.4 nM | 77.4 nM | 244 nM | 41.5 nM
– | – | – | Cc1cc2[nH]ncc2c(-c2nccc3c2sc2nc(OC[C@@]45CCCN4C[C@H](F)C5)nc(N4CCOC[C@@](C)(O)C4)c23)c1C1(F)CC1 [Ex-54, (6S)-4-(8-(5-(1-fluorocyclopropyl)-6-methyl-1H-indazol-4-yl)-2-(((2R,7aS)-2-fluorotetrahydro-1H-pyrrolizin-7a(5H)-yl)methoxy)pyrido[4′,3′:4,5]thi-eno[2,3-d)pyrimidin-4-yl)-6-methyl-1,4-oxazepan-6-ol] | 10.8 nM | 5.06 nM | 11.1 nM | 56.5 nM | 84.6 nM | 186 nM
– | – | – | Cc1c(C(F)(F)F)c(-c2nccc3c2sc2nc(OC[C@@]45CCCN4C[C@H](F)C5)nc(N4CCOC[C@@](C)(O)C4)c23)c2cn[nH]c2c1F [Ex-44, (6S)-4-(8-(7-fluoro-6-methyl-5-(trifluoromethyl)-1H-indazol-4-yl)-2-(((2R,7aS)-2-fluorotetrahydro-1H-pyrrolizin-7a(5H)-yl)methoxy)pyrido[4′,3′:4,5]thi-eno[2,3-d]pyrimidin-4-yl)-6-methyl-1,4-oxazepan-6-ol] | 281 nM | 141 nM | 242 nM | 373 nM | 452 nM | 281 nM
73.6 nM | 254 nM | 91.1 nM | C/C=C1\CCCc2cc3[nH]ncc3c(-c3nccc4c3sc3nc(OC[C@@]56CCCN5C[C@H](F)C6)nc(N5CCOC[C@@](C)(O)C5)c34)c21 [Ex-174, (6S)-4-(8-((E)-5-ethyl-idene-5,6,7,8-tetrahydro-1H-benzo[f]indazol-4-yl)-2-(((2R,7aS)-2-fluoro-tetrahydro-1H-pyrrolizin-7a(5H)-yl)methoxy)pyr-ido[4′,3′:4,5]thieno[2,3-d]pyrimidin-4-yl)-6-meth-yl-1,4-oxazepan-6-ol] | 63.8 nM | 23.6 nM | 26.2 nM | – | – | –
318 nM | 305 nM | 230 nM | C[C@@]1(O)COCCN(c2nc(OC[C@@]34C[C@H](F)CN3CC3(CC3)C4)nc3sc4c(-c5c(C6CC6)c(Cl)cc6[nH]ncc56)nccc4c23)C1 [Ex-219, (6S)-4-(8-(6-chloro-5-cyclopropyl-1H-indazol-fluoro-dihydro-1H,3′H-spiro[cyclopropane-1,2′-yl)methoxy)-pyrido[4′,3′:4,5]thieno[2,3-d]pyr-imidin-4-yl)-6-methyl-1,4-oxaze-pan-6-ol] | 255 nM | 82.7 nM | 196 nM | – | – | –
– | – | – | C[C@@]1(O)COCCN(c2nc(OC[C@@]34CCCN3C[C@H](F)C4)nc3sc4c(-c5c(C6=CCC6)c(Cl)cc6[nH]ncc56)nccc4c23)C1 [Ex-70, (6S)-4-(8-(6-chloro-5-(cyclobut-1-en-1-yl)-1H-indazol-4-yl)-2-(((2R,7aS)-2-fluorotetrahydro-1H-pyrrolizin-7a(5H)-yl)methoxy)pyrido[4′,3′:4,5]thi-eno[2,3-d]pyrimidin-4-yl)-6-methyl-1,4-oxazepan-6-ol] | 33.8 nM | 6.5 nM | 19.6 nM | 61.8 nM | 95.1 nM | 29.6 nM
28.4 nM | 61.7 nM | 32.1 nM | C[C@@]1(O)COCCN(c2nc(OC[C@@]34CCCN3C[C@H](F)C4)nc3sc4c(-c5c6cn[nH]c6cc6cccc(Cl)c56)nccc4c23)C1 [Ex-161, (6S)-4-(8-(5-chloro-1H-benzo[f]indazol-4-yl)-2-(((2R,7aS)-2-fluorotetrahydro-1H-pyrrolizin-7a(5H)-yl)methoxy)pyrido[4′,3′:4,5]thieno[2,3-d]pyrimidin-4-yl)-6-methyl-1,4-oxazepan-6-ol] | 15.2 nM | 6.04 nM | 11.4 nM | – | – | –
